From patent publication US20260224463A1, “COMPOSITIONS COMPRISING HYDROPHILIC ACTIVE INGREDIENTS IN OIL” (Lubrizol Advanced Materials, Inc., priority 2023, published 2026) come the findings set out here.

A short description of data set [1]: Visual inspection of physical appearance of the compositions. The format is physicochemical. Conditions: peptide 0.125 wt. % at the optimal ingredient concentrations, in words. As to the method: The stability of the formulations was determined by visual inspection and by quantification of the amount of active ingredient by high performance liquid chromatography (HPLC).
Visual inspection: The results are classified as OK or KO according to the physical appearance. OK represents a transparent solution at t=0 h with small particles at the bottom after 24h. KO represents solutions completely separated into phases, turbid or with an unacceptable precipitate at the bottom.

A short description of another data set: Log P of the peptides. The format is physicochemical.

By logP is commonly meant the decadic logarithm of the partition coefficient of the neutral form, usually between octanol and water. A low value points to lower lipophilicity. Regarding `CC(C)C[C@H](NC(=O)[C@H](Cc1ccccc1)NC(=O)CNC(=O)[C@@H](C)NC(=O)[C@@H](N)Cc1ccc(O)cc1)C(=O)O` [PEP-9, H-Tyr-D-Ala-Gly-Phe-Leu-OH], in data set [1], the “compatibility of the peptide with the composition” value (“compatibility of the peptide” below) is reported as “good compatibility”. In addition, in the data set “Log P of the peptides”, the lipophilicity (logP) was -1.02.

With “Ac-EEMQRRAD-NH2 [PEP-2, Ac-Glu-Glu-Met-Gln-Arg-Arg-Ala-Asp-NH2]”, the “compatibility of the peptide” value in data set [1] is recorded as “good compatibility”. Further, in the data set “Log P of the peptides”, the logP was -5.84.

For the compound “H-FWMKRKRVP-NH2 [PEP-8, H-Phe-Trp-Met-Lys-Arg-Lys-Arg-Val-Pro-NH2]”, in data set [1], the “compatibility of the peptide” value is recorded as “good compatibility”. In addition, the logP in “Log P of the peptides” was -3.38.
